Results: US8273775B2, “Non-steroidal brassinosteroid mimetic” (priority 2006, dated 2012)

Test system: gene expression in Col-0 seedling shoots
Assay: Microarray analysis (ATH1 Affymetrix) after BL or abrasin treatment
Type: in vivo, Arabidopsis
Procedure: FIG. 14: Clustering of gene expression profiles by QT-clust analysis. Clusters illustrating the major patterns of the data sets. Points: BIK-30: 30 μM abrasin 30 min; BL-30: 1 μM brassinolide 30 min; DMSO-30: control DMSO 30 min; BIK-120: 30 μM abrasin 120 min; BL-120: 1 μM brassinolide 120 min; DMSO-120: control DMSO 120 min.
Col-0 seeds were germinated vertically on ½ MS medium for 7 days under 16 h light/8 h dark cycles. The seedlings were overlaid with liquid ½ MS medium containing 1 μM brassinolide (BL, Fuji Chemical Industries, Ltd., Toyama, Japan), 30 μM abrasin (BIK, ChemBridge Corporation) and DMSO and treated for 30 and 120 min. The shoot parts were collected for RNA isolation. All sampling points were performed in three independent experiments. RNA was extracted using RNeasy kit (Qiagene). […] total RNA per array was used to hybridise the ATH1 Affymetrix Arabidopsis arrays according to standard procedure. The overrepresentation analyses were performed using BiNGO software (Maere et al., 2005).
We performed a microarray analysis using the Arabidopsis whole genome chip (Affymetix) to determine whether abrasin activated the expression of BR-inducible genes at transcriptional level. Wild-type Col-0 seedlings were exposed to 1 μM BL, 30 μM ABRASIN and DMSO (mock-treatment) for two time points (30 min and 120 min) and the shoot parts were collected for RNA isolation. The analysis of the variance of the normalized gene expression data took in account the variability parameters affecting the expression level: type of hormone treatment, duration of treatment and the interaction between these two.

For CC(C)[C@H](C)[C@@H](O)[C@H](O)[C@@H](C)[C@H]1CC[C@H]2[C@@H]3COC(=O)[C@H]4C[C@H](O)[C@H](O)C[C@]4(C)[C@H]3CC[C@]12C [BL, brassinolide, reference compound], the “expression of BR biosynthesis genes (CPD, DWF4, BR6OX2), Cluster 1” value (1 μM BL, 30 μM ABRASIN) was “down-regulated”, the “expression of genes involved in the auxin pathway (IAA29, IAA2)” value (1 μM BL, 30 μM ABRASIN) was “significantly down-regulated” and the “induction of early auxin-inducible SAUR family genes, Cluster 3” value (1 μM BL, 30 μM ABRASIN, 30 and 120 min) was “induced by BL as faster as 30 min treatment”. The “Fold-change AT1G04330 expressed protein” value (30 min) was 1.04, the “Fold-change AT1G05470 endonuclease/exonuclease/phosphatase family protein” value (30 min) was 1.04 and the “Fold-change AT1G06520 Encodes a membrane associated mitochondrial localized protein” value (30 min) was 1.57. For the same compound, the “Fold-change AT1G06570 4-hydroxyphenylpyruvate dioxygenase (HPD)” value (30 min) was 0.87, the “Fold-change AT1G10550 xyloglucan:xyloglucosyl transferase” value (30 min) was 1.34 and the “Fold-change AT1G12710 F-box family protein” value (30 min) was 1.26. The “Fold-change AT1G12750 rhomboid family protein” value (30 min) was 1.15, the “Fold-change AT1G14130 2-oxoglutarate-dependent dioxygenase” value (30 min) was 1.26 and the “Fold-change AT1G14700 purple acid phosphatase” value (30 min) was 0.73. The “Fold-change AT1G16640 transcriptional factor B3 family protein” value (30 min) was 1.02, the “Fold-change AT1G17230 leucine-rich repeat family protein” value (30 min) was 1.08 and the “Fold-change AT1G18020; AT1G17990 [AT1G18020, 12-oxophytodienoate reductase,” value (30 min) was 0.80. The “Fold-change AT1G19320 pathogenesis-related thaumatin family protein” value (30 min) was 0.81, the “Fold-change AT1G20350 mitochondrial import inner membrane translocase subunit” value (30 min) was 0.99 and the “Fold-change AT1G21050 expressed protein” value (30 min) was 0.72. The “Fold-change AT1G21760 F-box family protein” value (30 min) was 1.02, the “Fold-change AT1G22360 UDP-glucoronosyl/UDP-glucosyl transferase family protein” value (30 min) was 0.94 and the “Fold-change AT1G23080 auxin efflux carrier protein (PIN7)” value (30 min) was 0.89. The “Fold-change AT1G26800 zinc finger (C3HC4-type RING finger) family protein,” value (30 min) was 1.51, the “Fold-change AT1G27730 zinc finger (C2H2 type) family protein” value (30 min) was 0.18 and the “Fold-change AT1G28130 encodes an IAA-amido synthase” value (30 min) was 0.85. The “Fold-change AT1G28190 expressed protein” value (30 min) was 0.66, the “Fold-change AT1G28480 glutaredoxin family protein” value (30 min) was 0.99 and the “Fold-change AT1G31040 zinc-binding protein-related” value (30 min) was 0.88. The “Fold-change AT1G31310 hydroxyproline-rich glycoprotein family protein” value (30 min) was 0.85, the “Fold-change AT1G31770 ABC transporter family protein” value (30 min) was 0.99 and the “Fold-change AT1G32190 expressed protein” value (30 min) was 1.00. The “Fold-change AT1G32690 expressed protein” value (30 min) was 0.92, the “Fold-change AT1G36940 expressed protein” value (30 min) was 0.89 and the “Fold-change AT1G49780 U-box domain-containing protein” value (30 min) was 0.53. For the same compound, the “Fold-change AT1G53870; AT1G53890 [AT1G53870, expressed protein” value (30 min) was 0.89, the “Fold-change AT1G54050 17.4 kDa class III heat shock protein (HSP17.4-CIII)” value (30 min) was 1.09 and the “Fold-change AT1G54200 expressed protein” value (30 min) was 1.16. The “Fold-change AT1G55920 serine O-acetyltransferase” value (30 min) was 1.04, the “Fold-change AT1G57560 myb family transcription factor (MYB50)” value (30 min) was 1.04 and the “Fold-change AT1G59590 expressed protein” value (30 min) was 0.95. The “Fold-change AT1G59660 nucleoporin family proteinmily” value (30 min) was 1.67, the “Fold-change AT1G62300 WRKY family transcription factor” value (30 min) was 0.63 and the “Fold-change AT1G63050 membrane bound O-acyl transferase (MBOAT) family protein” value (30 min) was 0.98. The “Fold-change AT1G66160 U-box domain-containing protein,” value (30 min) was 1.10, the “Fold-change AT1G66890 expressed protein” value (30 min) was 0.72 and the “Fold-change AT1G68330 expressed protein” value (30 min) was 0.90. For the same compound, the “Fold-change AT1G68810 basic helix-loop-helix (bHLH) family protein” value (30 min) was 1.11, the “Fold-change AT1G69160 expressed protein” value (30 min) was 1.06 and the “Fold-change AT1G70990 proline-rich family protein” value (30 min) was 1.59. The “Fold-change AT1G71030 Encodes a putative myb family transcription factor” value (30 min) was 0.84, the “Fold-change AT1G72060 expressed protein” value (30 min) was 0.96 and the “Fold-change AT1G72180 leucine-rich repeat transmembrane protein kinase” value (30 min) was 0.87. For the same compound, the “Fold-change AT1G72800 nuM1-related, contains” value (30 min) was 1.08, the “Fold-change AT1G75270 dehydroascorbate reductase” value (30 min) was 1.27 and the “Fold-change AT1G75500 nodulin MtN21 family protein” value (30 min) was 0.91. The “Fold-change AT1G76240 expressed protein,” value (30 min) was 0.57, the “Fold-change AT1G76410 zinc finger (C3HC4-type RING finger)” value (30 min) was 1.61 and the “Fold-change AT1G79110 expressed protein” value (30 min) was 1.09. The “Fold-change AT1G79630 protein phosphatase 2C family protein” value (30 min) was 0.78, the “Fold-change AT1G80440 kelch repeat-containing F-box family protein” value (30 min) was 1.71 and the “Fold-change AT2G01300 expressed protein” value (30 min) was 1.16. For the same compound, the “Fold-change AT2G01990 expressed protein,” value (30 min) was 0.91, the “Fold-change AT2G04240 zinc finger (C3HC4-type RING finger) family protein” value (30 min) was 1.46 and the “Fold-change AT2G05540 glycine-rich protein” value (30 min) was 0.92. The “Fold-change AT2G12290; AT4G19700 [AT2G12290, expressed protein]; [AT4G19700, expressed protein]” value (30 min) was 0.80, the “Fold-change AT2G18010 auxin-responsive family protein (SAUR10)” value (30 min) was 1.60 and the “Fold-change AT2G19800 expressed protein” value (30 min) was 1.20. For the same compound, the “Fold-change AT2G22860 phytosulfokines 2 (PSK2)” value (30 min) was 0.86 and the “Fold-change AT2G23180 cytochrome P450, putative” value (30 min) was 1.10.
